For 39 molecules, inhibition results are on record in ChEMBL document CHEMBL2057073, “Synthesis and structure-activity relationship studies of 1,3-disubstituted 2-propanols as BACE-1 inhibitors” (Bioorg Med Chem Lett, 2012).

Each structure is given as a SMILES string.

This experiment deals with Beta-secretase 1 (Homo sapiens, UniProt P56817). In words: Inhibition of BACE1 at 100 uM by FRET assay.
Sequence of Beta-secretase 1 (P56817 whole entry): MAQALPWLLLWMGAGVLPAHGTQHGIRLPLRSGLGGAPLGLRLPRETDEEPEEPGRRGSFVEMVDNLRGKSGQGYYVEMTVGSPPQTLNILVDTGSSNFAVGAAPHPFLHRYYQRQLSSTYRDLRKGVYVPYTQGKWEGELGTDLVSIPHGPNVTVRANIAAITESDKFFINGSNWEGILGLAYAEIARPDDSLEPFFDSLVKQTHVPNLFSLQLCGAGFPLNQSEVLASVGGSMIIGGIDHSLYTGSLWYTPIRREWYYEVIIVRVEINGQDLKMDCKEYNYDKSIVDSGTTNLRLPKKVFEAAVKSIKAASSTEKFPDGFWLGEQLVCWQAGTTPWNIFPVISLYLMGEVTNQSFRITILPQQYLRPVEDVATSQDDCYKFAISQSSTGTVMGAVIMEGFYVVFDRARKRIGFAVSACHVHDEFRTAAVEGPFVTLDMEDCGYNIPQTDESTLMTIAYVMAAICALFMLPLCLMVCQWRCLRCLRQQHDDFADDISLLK
`OC(CSc1ccc(F)cc1)CN(Cc1ccccc1)Cc1ccccc1` (centres undefined) had an inhibition of 2%.

Molecule `COc1cc2c(cc1OC)C(c1ccccc1)N(CC(O)CSc1cc(C)cc(C)c1)CC2` (centres undefined) yielded an inhibition of 15%.

In turn, `COc1ccc(SCC(O)COc2ccc(Cc3ccccc3)cc2)c(OC)c1` (centres undefined) registered an inhibition of 67%.

The molecule `CCc1ccc(SCC(O)Cn2ccc3ccccc32)cc1` (centres undefined) came in with an inhibition of 72%.

On to `Oc1ccc(SCC(O)CN2CCC(C(O)(c3ccccc3)c3ccccc3)CC2)cc1` (centres undefined), for which the inhibition was 0%.

For `OC(CSc1ccc(F)cc1)CN1CCCCCC1` (centres undefined), the inhibition was found to be 10%.

Take `OC(CSc1ccccc1F)CN1CCC(C(O)(c2ccccc2)c2ccccc2)CC1` (centres undefined): the inhibition was 8%.

As to `COc1cc2c(cc1OC)C(c1ccccc1)N(CC(O)CSc1ccc(Cl)cc1)CC2` (centres undefined), the inhibition came to 3%.

In the case of `CCc1cccc2ccn(CC(O)CSc3ccccc3O)c12` (centres undefined), the inhibition turned out to be 32%.

Molecule `Cc1ccccc1SCC(O)COc1ccc(-c2ccccc2)cc1` (centres undefined) showed an inhibition of 74%.

For the molecule `OC(CSc1ccc(F)cc1)Cn1ccc2ccccc21` (centres undefined), the inhibition amounted to 54%.

On to `OC(CSc1ccccc1F)CN(Cc1ccccc1)Cc1ccccc1` (centres undefined), for which the inhibition came out at 1%.

For `Cc1c(C)n(CC(O)CSc2ccc3ccccc3c2)c2ccccc12` (centres undefined), the inhibition amounted to 87%.

In the case of `Oc1ccc(SCC(O)COc2ccc(-c3ccccc3)cc2)cc1` (centres undefined), the inhibition is 17%.

Molecule `Cc1cc(C)cc(SCC(O)CN2CCC(C(O)(c3ccccc3)c3ccccc3)CC2)c1` (centres undefined) registered an inhibition of 0%.

For the molecule `COc1ccc(SCC(O)CN2CCC(C(O)(c3ccccc3)c3ccccc3)CC2)c(OC)c1` (centres undefined), the inhibition worked out at 0%.

Molecule `OC(CSc1nnnn1-c1ccccc1)CN1CCC(C(O)(c2ccccc2)c2ccccc2)CC1` (centres undefined) returned an inhibition of 1%.

In the case of `OC(CSc1ccc(Cl)cc1)CN1CCC(C(O)(c2ccccc2)c2ccccc2)CC1` (centres undefined), the inhibition was found to be 10%.

`Cc1c(C)n(CC(O)CSc2ccccc2O)c2ccccc12` (centres undefined): the inhibition stood at 61%.

The molecule `CCc1ccccc1SCC(O)CN(Cc1ccccc1)Cc1ccccc1` (centres undefined) displayed an inhibition of 54%.

As to `OC(COc1ccc(-c2ccccc2)cc1)CSc1nnnn1-c1ccccc1` (centres undefined), the inhibition was found to be 71%.

As to `Cc1ccc(SCC(O)COc2ccc(-c3ccccc3)cc2)cc1` (centres undefined), the inhibition came to 27%.

In turn, `COc1cc2c(cc1OC)C(c1ccccc1)N(CC(O)CSc1ccc(C)cc1)CC2` (centres undefined) gave an inhibition of 11%.

In turn, `OC(CSc1ccccc1)CN1CCCCCC1` (centres undefined) showed an inhibition of 2%.

For the molecule `OC(COc1ccc(Cc2ccccc2)cc1)CSc1nnnn1-c1ccccc1` (centres undefined), the inhibition came out at 62%.

As to `OC(CSc1nnnn1-c1ccccc1)Cn1ccc2ccccc21` (centres undefined), the inhibition worked out at 58%.

With `Cc1ccc(SCC(O)CN2CCC(C(O)(c3ccccc3)c3ccccc3)CC2)cc1` (centres undefined), the inhibition was 1%.

In the case of `CCc1ccc(SCC(O)COc2ccc(Cc3ccccc3)cc2)cc1` (centres undefined), the inhibition worked out at 69%.

`COc1ccc(SCC(O)CN2CCc3cc(OC)c(OC)cc3C2c2ccccc2)cc1` (centres undefined) gave an inhibition of 20%.

With `OC(CSc1nnnn1-c1ccccc1)CN1CCCCCC1` (centres undefined), the inhibition turned out to be 0%.

In the case of `CCc1cccc2ccn(CC(O)CSc3ccc(OC)cc3OC)c12` (centres undefined), the inhibition turned out to be 69%.

Molecule `COc1ccc(SCC(O)Cn2c3c(c4ccccc42)CCCC3)c(OC)c1` (centres undefined) displayed an inhibition of 74%.

Molecule `COc1ccc(SCC(O)COc2ccc(Cc3ccccc3)cc2)cc1` (centres undefined) gave an inhibition of 48%.

With `COc1cc2c(cc1OC)C(c1ccccc1)N(CC(O)CSc1nnnn1-c1ccccc1)CC2` (centres undefined), the inhibition was 45%.

In the case of `COc1ccc(SCC(O)Cn2c3c(c4ccccc42)CCC3)c(OC)c1` (centres undefined), the inhibition came to 75%.

In turn, `OC(COc1ccc(Cc2ccccc2)cc1)CSc1ccc(Cl)cc1` (centres undefined) showed an inhibition of 63%.

`Cc1c(C)n(CC(O)CSc2cccc(N)c2)c2ccccc12` (centres undefined) yielded an inhibition of 55%.

As to `COc1ccc(SCC(O)CN2CCc3cc(OC)c(OC)cc3C2c2ccccc2)c(OC)c1` (centres undefined), the inhibition amounted to 24%.

`COc1ccc(SCC(O)CN(Cc2ccccc2)Cc2ccccc2)c(OC)c1` (centres undefined) gave an inhibition of 34%.

As a reminder, the inhibition is the change of the read-out against control, counted positive when it falls.
